# Data: ChEMBL document CHEMBL6109157, “Tertiary Alcohol: Reaping the Benefits but Minimizing the Drawbacks of Hydroxy Groups in Drug Discovery” (J Med Chem, 2025)
# pIC50: −log10 of the molar value.
# Key:
# [1] = Binding affinity to [125I] radiolabelled Angiotensin-2 receptor in bovine adrenal cortex membrane; assay type: cell membranes, Bos taurus
# [2] = AUC in mouse at 50 mg/kg, po measured for 40 mins by LC-MS/MS analysis; assay type: ADME, organism-based; settings: in vivo
# Mus musculus [3] = assay: Dose normalized in AUC mouse at 50 mg/kg by LC-MS/MS analysis; assay type: ADME, organism-based; settings: in vivo
# [4] = In vivo inhibition of Angiotensin II-induced pressor response in Wistar rat model at 0.3 mg/kg, po and measured for 6 hrs; assay type: functional
# [5] = AUC in po dosed mouse at 25 mg/kg by LC-MS/MS analysis; assay type: ADME, organism-based; settings: in vivo
# Mus musculus [6] = assay: Dose normalized in AUC mouse at 25 mg/kg by LC-MS/MS analysis; assay type: ADME, organism-based; settings: in vivo
# [7] = molecular target: Dual specificity mitogen-activated protein kinase kinase 1 (Homo sapiens, UniProt Q02750); assay: Inhibition of MEK1 (unknown origin) phosphorylation
# Sequence of Dual specificity mitogen-activated protein kinase kinase 1 (Q02750 whole entry): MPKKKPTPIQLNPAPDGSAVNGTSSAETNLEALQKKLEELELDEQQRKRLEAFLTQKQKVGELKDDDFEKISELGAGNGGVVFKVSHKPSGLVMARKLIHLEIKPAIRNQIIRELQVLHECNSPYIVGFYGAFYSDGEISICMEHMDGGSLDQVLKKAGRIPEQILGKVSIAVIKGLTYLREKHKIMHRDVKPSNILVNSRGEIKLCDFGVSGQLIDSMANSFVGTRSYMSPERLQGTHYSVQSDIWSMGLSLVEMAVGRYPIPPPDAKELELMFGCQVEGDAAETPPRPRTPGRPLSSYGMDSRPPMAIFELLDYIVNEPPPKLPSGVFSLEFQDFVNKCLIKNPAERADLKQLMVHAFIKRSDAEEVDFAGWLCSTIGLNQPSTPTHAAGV
pIC50 [1],Structure (SMILES),inhibition in vivo at 0.3 mg/kg [4],other results
7.96,CCCc1nc(C)c(C(=O)O)n1Cc1ccc(-c2ccccc2-c2nn[nH]n2)cc1,–,–
–,Nc1nccn2c(C3CCC3)nc(-c3ccc4ccc(-c5ccccc5)nc4c3)c12,–,AUC [2]: 5170 ng·h/mL; AUC/dose (Mus musculus [3]): 103.4 ng·h/mL/mg/kg
7.92,CCCc1nc(CC)c(C(=O)O)n1Cc1ccc(-c2ccccc2-c2nn[nH]n2)cc1,–,–
8.16,CCCc1nc(CO)c(C(=O)O)n1Cc1ccc(-c2ccccc2-c2nn[nH]n2)cc1,65%,–
–,C[C@]1(O)C[C@@H](c2nc(-c3ccc4ccc(-c5ccccc5)nc4c3)c3c(N)nccn32)C1 [LINSITINIB],–,AUC [5]: 26700 ng·h/mL; AUC/dose (Mus musculus [6]): 1069.6 ng·h/mL/mg/kg
8.31,CCCc1nc(C(C)O)c(C(=O)O)n1Cc1ccc(-c2ccccc2-c2nn[nH]n2)cc1 (centres undefined),69%,–
7.34,CCCc1nc(C(C)C)c(C(=O)O)n1Cc1ccc(-c2ccccc2-c2nn[nH]n2)cc1,–,–
8.09,CCCc1nc(C(C)(C)O)c(C(=O)O)n1Cc1ccc(-c2ccccc2-c2nnn[nH]2)cc1 [OLMESARTAN],78%,–
–,O=C(c1ccc(F)c(F)c1Nc1ccc(I)cc1F)N1CC(O)([C@@H]2CCCCN2)C1 [COBIMETINIB],–,pIC50 [7]: 9.70
